Measurements reported in US9481648B2, “Kinase inhibitors” (Respivert Limited, priority 2013, dated 2016).

How the values were obtained:
p38 MAPKα (MAPK14) = p38 MAPKα (MAPK14) (Homo sapiens (Human), UniProt Q16539); assay: p38 MAPKα enzyme inhibition (FRET, Z-LYTE; Method 2); assay type: biochemical
Method: (§1) The enzyme inhibitory activities of compounds disclosed herein are determined by FRET using synthetic peptides labelled with both donor and acceptor fluorophores (Z-LYTE, Invitrogen Ltd., Paisley, UK).
The inhibitory activities of test compounds against the p38 MAPKα isoform (MAPK14: Invitrogen) are evaluated indirectly by determining the level of activation\phosphorylation of the down-stream molecule, MAPKAP-K2. The p38 MAPKα protein (80 ng/mL, 2.5 μL) is mixed with the test compound (2.5 μL of either 4 μg/mL, 0.4 μg/mL, 0.04 μg/mL or 0.004 μg/mL) for 2 hr at RT. […] The mixture is incubated for 1 hr at RT. Development reagent (protease, 5 μL) is added for 1 hr prior to detection in a fluorescence microplate reader (Vanoskan® Flash, ThermoFisher Scientific).
(§2) In all cases, the site-specific protease cleaves non-phosphorylated peptide only and eliminates the FRET signal. Phosphorylation levels of each reaction are calculated using the ratio of coumarin emission (donor) over fluorescein emission (acceptor), for which high ratios indicate high phosphorylation and low ratios indicate low phosphorylation levels.

c-Src = c-Src (Homo sapiens (Human), UniProt P12931); assay: c-Src enzyme inhibition (FRET, Z-LYTE); assay type: biochemical
Chain of c-Src (P12931 whole entry, looked up): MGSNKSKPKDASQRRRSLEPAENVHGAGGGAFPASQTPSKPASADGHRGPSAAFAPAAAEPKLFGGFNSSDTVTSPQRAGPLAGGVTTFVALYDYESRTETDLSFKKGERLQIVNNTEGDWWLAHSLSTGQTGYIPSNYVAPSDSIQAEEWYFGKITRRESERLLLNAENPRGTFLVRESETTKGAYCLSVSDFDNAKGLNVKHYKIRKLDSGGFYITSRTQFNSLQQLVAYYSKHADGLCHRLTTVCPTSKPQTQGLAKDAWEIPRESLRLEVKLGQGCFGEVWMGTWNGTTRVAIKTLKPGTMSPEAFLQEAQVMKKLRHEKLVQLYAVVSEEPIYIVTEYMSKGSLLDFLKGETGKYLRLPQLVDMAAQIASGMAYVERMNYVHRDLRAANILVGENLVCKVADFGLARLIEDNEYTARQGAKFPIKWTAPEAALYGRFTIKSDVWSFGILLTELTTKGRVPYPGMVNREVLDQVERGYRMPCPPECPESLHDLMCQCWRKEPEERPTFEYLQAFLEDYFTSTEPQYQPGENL
Method: as §1
(§3) The relevant enzyme (3000 ng/mL or 2000 ng/mL respectively, 2.5 μL) is incubated with the test compound (either 1 μg/mL, 0.1 μg/mL, 0.01 μg/mL, or 0.001 μg/mL, 2.5 μL each) for 2 hr at RT. The FRET peptides (8 μM, 2.5 μL), and appropriate ATP solutions (2.5 μL, 800 μM for c-Src, and 60 μM ATP for Syk) are then added to the enzymes/compound mixtures and the mixture incubated for 1 hr. Development reagent (protease, 5 μL) is added for 1 hr prior to detection in a fluorescence microplate reader (Varioskan® Flash, ThermoFisher Scientific).
as §2

[1] = system: β-catenin in d-U937 cells; assay: Accumulation of β catenin in d-U937 cells (assay m); assay type: cell-based, human
Method: U937 cells, a human monocytic cell line, are differentiated into macrophage-type cells by incubation with PMA (100 ng/mL) for between 48 to 72 hr. The cells are then incubated with either final concentrations of test compound or vehicle for 18 hr. The induction of β-catenin by the test compounds is stopped by replacing the media with 4% formaldehyde solution. Endogenous […] is neutralised by incubating with quenching buffer (100 μL, 0.1% sodium azide, 1% H2O2 in PBS with 0.05% Tween-20) for 20 min. The cells are washed with washing buffer (200 μL; PBS containing 0.05% Tween-20) and incubated with blocking solution (200 μL; 5% milk in PBS) for 1 hr, re-washed with washing buffer (200 μL) and then incubated overnight with anti-β-catenin antibody solution (50 μL) in 1% BSA/PBS (BD, Oxford, UK).
After washing with washing buffer (3×200 μL; PBS containing 0.05% Tween-20), cells are incubated with a HRP-conjugated secondary antibody solution (100 μL) in 1% BSA/PBS (Dako, Cambridge, UK) and the resultant signal is determined colourimetrically (OD: 450 nm with a reference wavelength of 655 nm) using TMB substrate (50 μL; R&D Systems, Abingdon, UK). This reaction is stopped by addition of 1N H2SO4 solution (50 μL). Cells are then washed with washing buffer and 2% crystal violet solution (50 μL) is applied for 30 min. After washing with washing buffer (3×200 μL), 1% SDS (100 μL) is added to each well and the plates are shaken lightly for 1 hr prior to measuring the absorbance at 595 nm (Varioskan® Flash, Thermo-Fisher Scientific).
The measured OD450-655 readings are corrected for cell number by dividing the OD450-655 by the OD595 readings.

GSK 3α = GSK 3α (Homo sapiens (Human), UniProt P49840); assay: GSK 3α enzyme inhibition (FRET, Z-LYTE; Method 2); assay type: biochemical; details: read-out: IC50 Values for Enzyme Inhibition GSK3α
Chain of GSK 3α (P49840 whole entry): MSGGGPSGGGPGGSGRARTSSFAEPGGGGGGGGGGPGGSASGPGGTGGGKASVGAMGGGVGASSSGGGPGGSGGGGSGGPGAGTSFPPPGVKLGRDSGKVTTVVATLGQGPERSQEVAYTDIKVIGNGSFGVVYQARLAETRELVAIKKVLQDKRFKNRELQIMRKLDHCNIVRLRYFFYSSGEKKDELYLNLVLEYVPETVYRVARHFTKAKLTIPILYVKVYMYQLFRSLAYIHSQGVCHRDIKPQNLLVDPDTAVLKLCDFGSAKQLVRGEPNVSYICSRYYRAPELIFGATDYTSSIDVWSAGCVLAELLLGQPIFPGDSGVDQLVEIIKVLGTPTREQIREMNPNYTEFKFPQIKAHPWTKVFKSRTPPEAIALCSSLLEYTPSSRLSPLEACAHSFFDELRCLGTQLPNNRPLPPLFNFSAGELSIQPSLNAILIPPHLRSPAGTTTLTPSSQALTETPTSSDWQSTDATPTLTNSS
Method in brief: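 Phosphorylation was taken from the donor (coumarin) to acceptor (fluorescein) emission ratio after 1 h protease development, which cleaves only unphosphorylated peptide. Before that, peptide (8 μM stock) plus ATP (40 μM stock) reacted 1 h. This followed a 105 min RT preincubation of GSK3-α with compound stocks of 10–0.01 μg/mL.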

Syk = Syk (Homo sapiens (Human), UniProt P43405); assay: Syk enzyme inhibition (FRET, Z-LYTE); assay type: biochemical
Method: as §1, §3, §2

Chain of p38 MAPKα (MAPK14) (Q16539 whole entry): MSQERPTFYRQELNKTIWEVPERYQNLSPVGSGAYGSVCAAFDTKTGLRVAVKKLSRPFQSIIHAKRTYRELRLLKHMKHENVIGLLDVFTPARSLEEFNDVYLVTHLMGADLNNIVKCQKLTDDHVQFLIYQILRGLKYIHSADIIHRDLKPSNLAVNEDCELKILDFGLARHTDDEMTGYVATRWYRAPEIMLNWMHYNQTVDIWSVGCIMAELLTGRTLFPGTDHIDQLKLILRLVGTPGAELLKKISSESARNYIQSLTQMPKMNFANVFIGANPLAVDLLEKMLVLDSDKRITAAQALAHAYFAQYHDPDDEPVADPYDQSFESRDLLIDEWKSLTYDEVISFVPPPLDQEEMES

IC50 (p38 MAPKα (MAPK14)) [nM]	IC50 (c-Src) [nM]	IC50 (GSK 3α) [nM]	IC50 (Syk) [nM]	Structure (SMILES)	% β-catenin induction ([1]; test compound 1 μg/mL) [%]	% β-catenin induction ([1]; test compound 5 μg/mL) [%]	% β-catenin induction ([1]; test compound 10 μg/mL) [%]
179	40	5460	149	COCCOCCOCCOc1cc(Nc2nccc(Oc3ccc(NC(=O)Nc4cc(C(C)(C)C)cc(NS(C)(=O)=O)c4OC)c4ccccc34)n2)cc(OC(F)F)c1 [Example 17, N-(5-(tert-Butyl)-3-(3-(4-((2-((3-(difluoromethoxy)-5-(2-(2-(2-methoxyethoxy)ethoxy)-ethoxy)phenyl)amino)pyrimidin-4-yl)oxy)naphthalen-1-yl)ureido)-2-methoxyphenyl)-methanesulfonamide]	5	23	23
157	22	2360	131	COCCOCCOCCOc1cc(Nc2nccc(Oc3ccc(NC(=O)Nc4cc(C(C)(C)C)cc(S(N)(=O)=O)c4OC)c4ccccc34)n2)cc(OC)c1 [Example 55, 5-(tert-Butyl)-2-methoxy-3-(3-(4-((2-((3-methoxy-5-(2-(2-(2-methoxyethoxy)ethoxy)-ethoxy)phenyl)amino)pyrimidin-4-yl)oxy)naphthalen-1-yl)ureido)benzenesulfonamide]	11	23	45
551	18	1310	63	COCCOCCOCCOc1cc(Nc2nccc(Oc3ccc(NC(=O)Nc4cc(C(C)(C)C)cc(NS(C)(=O)=O)c4OC)c(Cl)c3Cl)n2)cc(OC)c1 [Example 10, N-(5-(tert-Butyl)-3-(3-(2,3-dichloro-4-((2-((3-methoxy-5-(2-(2-(2-methoxyethoxy)ethoxy)-ethoxy)phenyl)amino)pyrimidin-4-yl)oxy)phenyl)ureido)-2-methoxyphenyl)-methanesulfonamide]	12	42	39
173	58	4930	121	COc1cccc(Nc2cc(Oc3ccc(NC(=O)Nc4cc(C(C)(C)C)cc(C(=O)NC5COC5)c4OC)c4ccccc34)ccn2)c1 [Example 81, 5-(tert-Butyl)-2-methoxy-3-(3-(4-((2-((3-methoxyphenyl)amino)pyridin-4-yl)oxy)naphthalen-1-yl)ureido)-N-(oxetan-3-yl)benzamide]	4	14	13
34	11	541	421	COc1cc(Nc2nccc(Oc3ccc(NC(=O)Nc4cc(C(C)(C)C)cc(NS(C)(=O)=O)c4OC)c4ccccc34)n2)cc(C(=O)NCCN2CCOCC2)c1 [Example 6, 3-((4-((4-(3-(5(tert-Butyl)-2-methoxy-3-(methylsulfonamido)phenyl)ureido)naphthaen-1-yl)oxy)pyrimidin-2-yl)amino)-5-methox-N-(2-morpholinoethyl)benzamide]	7	20	11
229	45	5030	490	C#Cc1cc(Nc2cc(Oc3ccc(NC(=O)Nc4cc(C(C)(C)C)cc(C(N)=O)c4OC)c4ccccc34)ccn2)cc(C(=O)NCCN2CCOCC2)c1 [Example 48, 3-((4-((4-(3-(5-(tert-Butyl)-3-carbamoyl-2-methoxyphenyl)ureido)naphthalen-1-yl)oxy)pyridin-2-yl)amino)-5-ethynyl-N-(2-morpholinoethyl)benzamide]	−2	−4	−3
92	15	1600	169	COc1cc(Nc2cc(Oc3ccc(NC(=O)Nc4cc(C(C)(C)C)cc(C(N)=O)c4OC)c4ccccc34)ccn2)cc(C(=O)NCCN2CCOCC2)c1 [Example 47, 3-((4-((4-(3-(5-(tert-Butyl)-3-carbamoyl-2-methoxyphenyl)ureido)naphthalen-1-yl)oxy)pyridin-2-yl)amino)-5-methoxy-N-(2-morpholinoethyl)benzamide]	−5	4	8
33	6	748	29	COCCOCCOCCOc1cc(Nc2nccc(Oc3ccc(NC(=O)Nc4cc(C(C)(C)C)cc(C(N)=O)c4OC)c4ccccc34)n2)cc(OC)c1 [Example 20, 5-(tert-Butyl)-2-methoxy-3-(3-(4-((2-((3-methoxy-5-(2-(2-(2-methoxyethoxy)ethoxy)-ethoxy)phenyl)amino)pyrimidin-4-yl)oxy)naphthalen-1-yl)ureido)benzamide]	4	31	29
132	28	978	128	COCCOCCOCCOc1cc(Nc2nccc(Oc3ccc(NC(=O)Nc4cc(C(C)(C)C)cc(-c5nnco5)c4OC)c4ccccc34)n2)cc(OC)c1 [Example 59, 1-(5-(tert-Butyl)-2-methoxy-3-(1,3,4-oxadiazol-2-yl)phenyl)-3-(4-((2-((3-methoxy-5-(2-(2-(2-methoxyethoxy)ethoxy)ethoxy)phenyl)amino)pyrimidin-4-yl)oxy)naphthalen-1-yl)urea]	14	33	28
147	13	1530	121	CCOc1c(NC(=O)Nc2ccc(Oc3ccnc(Nc4cc(OC)cc(OCCOCCOCCOC)c4)n3)c3ccccc23)cc(C(C)(C)C)cc1NS(C)(=O)=O [Example 69]	10	17	25

Structure (SMILES)	IC50 (p38 MAPKα (MAPK14)) [nM]	IC50 (c-Src) [nM]	IC50 (GSK 3α) [nM]	IC50 (Syk) [nM]	% β-catenin induction ([1]; test compound 1 μg/mL) [%]	% β-catenin induction ([1]; test compound 5 μg/mL) [%]	% β-catenin induction ([1]; test compound 10 μg/mL) [%]
COCCOCCOCCOc1cc(Nc2nccc(Oc3ccc(NC(=O)Nc4cc(C(C)(C)C)cc(C(=O)NC5COC5)c4OC)c4ccccc34)n2)cc(OC)c1 [Example 51, 5-(tert-Butyl)-2-methoxy-3-(3-(4-((2-((3-methoxy-5-(2-(2-(2-methoxyethoxy)ethoxy)-ethoxy)phenyl)amino)pyrimidin-4-yl)oxy)naphthalen-1-yl)ureido)-N-(oxetan-3-yl)-benzamide]	170	15	977	49	3	33	29
C#Cc1cc(Nc2cc(Oc3ccc(NC(=O)Nc4cc(C(C)(C)C)cc(C(=O)NC)c4OC)c4ccccc34)ccn2)cc(C(=O)NCCN2CCOCC2)c1 [Example 39, 5-(tert-Butyl)-3-(3-(4-((2-((3-ethynyl-5-((2-morpholinoethyl)carbamoyl)phenyl)amino)-pyridin-4-yl)oxy)naphthalen-1-yl)ureido)-2-methoxy-N-methylbenzamide]	140	29	1600	571	−11	−12	−18
